Assays:
[1] = molecular target: α4β4 nAChR (Rattus norvegicus, UniProt P09483+P12392); type: cell-based
[2] = molecular target: α4β2 nAChR (Rattus norvegicus, UniProt P09483+P12390); type: cell-based
[3] = molecular target: α6/α3β2β3 nAChR (α6/α3 chimera) (Rattus norvegicus, UniProt P04757+P12390+P12391+P43143); type: cell-based
[4] = molecular target: α3β2 nAChR (Rattus norvegicus, UniProt P04757+P12390); type: cell-based
[5] = molecular target: α2β2 nAChR (Rattus norvegicus, UniProt P12389+P12390); type: cell-based
Chain of α2β2 nAChR (P12389 28-511 limits assumed): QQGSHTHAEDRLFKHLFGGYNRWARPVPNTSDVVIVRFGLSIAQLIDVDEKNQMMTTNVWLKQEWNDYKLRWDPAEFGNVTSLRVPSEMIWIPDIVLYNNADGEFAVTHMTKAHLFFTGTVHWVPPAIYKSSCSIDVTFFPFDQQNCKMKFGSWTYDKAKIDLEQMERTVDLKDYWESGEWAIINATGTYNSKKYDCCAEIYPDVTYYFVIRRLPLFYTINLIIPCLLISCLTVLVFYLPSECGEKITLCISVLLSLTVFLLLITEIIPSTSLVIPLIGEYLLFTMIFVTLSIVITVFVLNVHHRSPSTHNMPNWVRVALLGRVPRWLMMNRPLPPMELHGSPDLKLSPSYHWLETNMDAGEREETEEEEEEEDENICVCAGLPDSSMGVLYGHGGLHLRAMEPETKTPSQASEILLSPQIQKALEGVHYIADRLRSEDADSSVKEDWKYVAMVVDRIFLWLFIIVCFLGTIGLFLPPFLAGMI
Chain of α2β2 nAChR (P12390 25-500 limits assumed): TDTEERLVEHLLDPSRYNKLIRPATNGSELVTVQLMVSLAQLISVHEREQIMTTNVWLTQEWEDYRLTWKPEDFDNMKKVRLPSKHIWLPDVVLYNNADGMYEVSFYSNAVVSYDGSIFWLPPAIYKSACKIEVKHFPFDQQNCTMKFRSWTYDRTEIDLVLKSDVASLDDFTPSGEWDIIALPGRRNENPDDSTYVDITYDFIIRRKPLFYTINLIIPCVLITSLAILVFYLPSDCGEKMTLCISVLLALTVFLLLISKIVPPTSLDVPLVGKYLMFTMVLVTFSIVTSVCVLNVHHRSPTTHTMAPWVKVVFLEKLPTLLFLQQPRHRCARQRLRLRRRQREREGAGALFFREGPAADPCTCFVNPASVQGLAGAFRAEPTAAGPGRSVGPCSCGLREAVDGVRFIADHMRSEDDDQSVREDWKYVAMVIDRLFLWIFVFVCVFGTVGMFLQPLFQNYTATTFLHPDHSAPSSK

[6] = molecular target: α9α10 nAChR (Rattus norvegicus, UniProt P43144+Q9JLB5); type: cell-based
Chain of α9α10 nAChR (Rattus norvegicus, UniProt P43144+Q9JLB5) (P43144 26-479 limits assumed): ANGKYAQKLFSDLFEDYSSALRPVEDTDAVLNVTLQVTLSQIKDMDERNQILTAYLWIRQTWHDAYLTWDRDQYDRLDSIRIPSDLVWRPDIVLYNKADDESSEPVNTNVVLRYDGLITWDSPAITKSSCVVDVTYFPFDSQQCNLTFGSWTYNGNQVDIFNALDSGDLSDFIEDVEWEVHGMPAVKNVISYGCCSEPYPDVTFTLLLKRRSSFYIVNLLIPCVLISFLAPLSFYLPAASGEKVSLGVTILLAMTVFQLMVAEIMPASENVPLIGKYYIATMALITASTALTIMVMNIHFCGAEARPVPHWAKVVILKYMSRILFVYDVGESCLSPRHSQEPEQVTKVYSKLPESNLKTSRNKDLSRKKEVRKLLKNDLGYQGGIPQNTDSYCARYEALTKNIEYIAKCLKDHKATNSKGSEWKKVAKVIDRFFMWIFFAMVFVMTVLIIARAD
Chain of α9α10 nAChR (Rattus norvegicus, UniProt P43144+Q9JLB5) (Q9JLB5 25-447 limits assumed): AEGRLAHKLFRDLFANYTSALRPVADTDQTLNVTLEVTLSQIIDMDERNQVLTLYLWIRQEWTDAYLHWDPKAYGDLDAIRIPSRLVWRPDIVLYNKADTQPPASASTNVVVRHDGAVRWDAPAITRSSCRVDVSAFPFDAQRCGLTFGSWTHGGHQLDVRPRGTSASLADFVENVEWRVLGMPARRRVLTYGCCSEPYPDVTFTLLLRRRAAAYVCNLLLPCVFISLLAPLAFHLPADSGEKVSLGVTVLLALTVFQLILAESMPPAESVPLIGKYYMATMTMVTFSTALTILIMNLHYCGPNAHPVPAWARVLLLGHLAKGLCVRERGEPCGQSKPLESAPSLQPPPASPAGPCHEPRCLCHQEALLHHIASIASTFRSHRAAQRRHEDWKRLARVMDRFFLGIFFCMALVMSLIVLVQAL

[7] = molecular target: α7 nAChR (Rattus norvegicus, UniProt Q05941); type: cell-based
Chain of α7 nAChR (Q05941 23-502 limits assumed): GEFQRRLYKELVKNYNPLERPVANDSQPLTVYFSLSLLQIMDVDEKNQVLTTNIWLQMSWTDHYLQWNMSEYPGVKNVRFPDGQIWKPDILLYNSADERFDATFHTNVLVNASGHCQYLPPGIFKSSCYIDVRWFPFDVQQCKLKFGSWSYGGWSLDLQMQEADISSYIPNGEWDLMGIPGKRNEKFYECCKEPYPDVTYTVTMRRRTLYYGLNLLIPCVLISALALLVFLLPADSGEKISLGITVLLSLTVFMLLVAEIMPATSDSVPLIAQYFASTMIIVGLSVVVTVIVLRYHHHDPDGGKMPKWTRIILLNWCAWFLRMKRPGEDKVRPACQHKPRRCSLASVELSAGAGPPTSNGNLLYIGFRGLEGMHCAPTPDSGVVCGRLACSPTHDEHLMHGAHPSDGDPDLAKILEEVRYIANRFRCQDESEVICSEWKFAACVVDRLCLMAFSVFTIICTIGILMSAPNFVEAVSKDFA

[8] = test system: α6/α3β2β3 nAChR; settings: cited from earlier work
[9] = test system: α6/α3β4 nAChR; settings: cited from earlier work
[10] = test system: α3β2 nAChR; settings: cited from earlier work
[11] = test system: α9α10 nAChR; settings: cited from earlier work

Chain of α3β2 nAChR (Rattus norvegicus, UniProt P04757+P12390) (P04757 26-499 limits assumed): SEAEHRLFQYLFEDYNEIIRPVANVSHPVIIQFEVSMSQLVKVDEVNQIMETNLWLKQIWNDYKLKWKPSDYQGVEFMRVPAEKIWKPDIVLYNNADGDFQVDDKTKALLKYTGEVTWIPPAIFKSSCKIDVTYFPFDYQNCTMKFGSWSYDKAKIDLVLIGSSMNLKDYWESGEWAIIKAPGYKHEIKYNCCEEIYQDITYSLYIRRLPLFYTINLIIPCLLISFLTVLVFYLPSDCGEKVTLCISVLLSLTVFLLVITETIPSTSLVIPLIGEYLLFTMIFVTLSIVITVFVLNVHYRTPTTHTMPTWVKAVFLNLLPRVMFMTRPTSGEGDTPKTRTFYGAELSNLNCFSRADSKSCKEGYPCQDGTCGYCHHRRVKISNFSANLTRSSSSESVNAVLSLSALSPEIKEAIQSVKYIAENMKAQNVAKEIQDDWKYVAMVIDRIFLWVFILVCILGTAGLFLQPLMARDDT
Chain of α3β2 nAChR (Rattus norvegicus, UniProt P04757+P12390) (P12390 25-500 limits assumed): as the sequence (P12390 25-500 limits assumed) above
Chain of α4β4 nAChR (P09483 31-630 limits assumed): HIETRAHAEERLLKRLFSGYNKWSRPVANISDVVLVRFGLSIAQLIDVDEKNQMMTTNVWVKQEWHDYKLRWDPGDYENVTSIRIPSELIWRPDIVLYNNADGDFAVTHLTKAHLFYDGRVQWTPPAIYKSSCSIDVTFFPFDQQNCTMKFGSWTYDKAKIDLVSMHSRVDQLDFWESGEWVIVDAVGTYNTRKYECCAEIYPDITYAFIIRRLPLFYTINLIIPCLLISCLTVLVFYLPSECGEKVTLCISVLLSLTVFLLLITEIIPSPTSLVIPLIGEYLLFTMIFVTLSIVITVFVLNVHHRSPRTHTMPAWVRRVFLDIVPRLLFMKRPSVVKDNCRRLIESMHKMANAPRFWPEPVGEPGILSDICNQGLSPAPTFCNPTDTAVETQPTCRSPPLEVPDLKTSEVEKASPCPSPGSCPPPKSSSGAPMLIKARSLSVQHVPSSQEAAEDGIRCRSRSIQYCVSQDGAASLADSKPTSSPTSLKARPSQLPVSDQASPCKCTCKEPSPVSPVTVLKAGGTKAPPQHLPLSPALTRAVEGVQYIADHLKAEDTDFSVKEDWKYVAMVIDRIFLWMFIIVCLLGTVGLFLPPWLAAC
Chain of α4β4 nAChR (P12392 22-495 limits assumed): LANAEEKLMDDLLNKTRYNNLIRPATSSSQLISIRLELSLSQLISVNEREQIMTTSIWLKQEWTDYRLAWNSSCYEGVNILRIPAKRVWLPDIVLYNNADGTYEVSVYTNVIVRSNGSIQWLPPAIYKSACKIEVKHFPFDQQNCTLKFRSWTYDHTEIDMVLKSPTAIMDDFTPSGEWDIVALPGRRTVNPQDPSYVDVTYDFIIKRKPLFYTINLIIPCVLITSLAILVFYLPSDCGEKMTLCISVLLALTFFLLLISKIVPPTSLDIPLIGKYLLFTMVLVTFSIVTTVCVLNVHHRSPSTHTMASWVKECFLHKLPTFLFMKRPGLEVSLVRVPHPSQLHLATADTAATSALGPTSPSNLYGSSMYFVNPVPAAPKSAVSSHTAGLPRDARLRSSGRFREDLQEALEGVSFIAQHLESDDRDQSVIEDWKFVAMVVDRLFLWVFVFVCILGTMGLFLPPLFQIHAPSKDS
Chain of α4β2 nAChR (P09483 31-630 limits assumed): as the sequence (P09483 31-630 limits assumed) above
Chain of α4β2 nAChR (P12390 25-500 limits assumed): as the sequence (P12390 25-500 limits assumed) above

| Compound | block at 10^−5 M [1] | block of ACh-evoked currents [1] | block at 10^−5 M [2] | block at 10^−5 M [3] | block at 10^−5 M [4] | block of ACh-evoked currents [4] | block at 10^−5 M [5] | block at 10^−5 M [6] | block of ACh-evoked currents [6] | block at 10^−5 M [7] | block of ACh-evoked currents [7] | IC50 [8] [nM] | IC50 [9] [nM] | IC50 [10] [nM] | IC50 [11] [nM] |
| --- | --- | --- | --- | --- | --- | --- | --- | --- | --- | --- | --- | --- | --- | --- | --- |
| CC[C@H](C)[C@@H]1NC(=O)[C@@H]2CCCN2C(=O)[C@H](CO)NC(=O)[C@H](CCSC)NC(=O)[C@H](C)NC(=O)[C@H](CO)NC(=O)[C@@H]2CSSC[C@H](NC(=O)CN)C(=O)N[C@@H](CSSC[C@@H](C(N)=O)NC1=O)C(=O)N[C@@H](CO)C(=O)N[C@@H](Cc1c[nH]cn1)C(=O)N1CCC[C@H]1C(=O)N[C@@H](C(C)C)C(=O)N2 [TxID] | c less than 50% block at 10^−5 M. All receptors are rat except for α1β1δε, which is mouse. | no inhibition | c less than 50% block at 10^−5 M. All receptors are rat except for α1β1δε, which is mouse. | c less than 50% block at 10^−5 M. All receptors are rat except for α1β1δε, which is mouse. | c less than 50% block at 10^−5 M. All receptors are rat except for α1β1δε, which is mouse. | no inhibition | c less than 50% block at 10^−5 M. All receptors are rat except for α1β1δε, which is mouse. | c less than 50% block at 10^−5 M. All receptors are rat except for α1β1δε, which is mouse. | no inhibition | c less than 50% block at 10^−5 M. All receptors are rat except for α1β1δε, which is mouse. | no inhibition | – | – | – | – |
| Vc1.1 | – | – | – | – | – | – | – | – | – | – | – | 140 | 980 | 7300 | 19 |

From paper PMC4033315 (Journal of medicinal chemistry, 2013)
